Laboratory results as given in the NIST ThermoML archive (doi:10.1016/j.jct.2018.08.015).
± gives the expanded uncertainty stated by the source.

Conditions: Liquid; for mass density: 298.15 K, 101.33 kPa, Vibrating tube method; for vapor or sublimation pressure: Ebulliometric method (Recirculating still)

C=C1CC/C=C(\C)CC[C@@H]2[C@@H]1CC2(C)C
Conditions	mass density [kg/m3]	vapor or sublimation pressure [kPa]
–	896.8 ± 2	–
370.33 K	–	0.51 ± 0.4
380.5 K	–	0.84 ± 0.4
395.45 K	–	1.63 ± 0.41
420.02 K	–	4.31 ± 0.44
435.58 K	–	7.51 ± 0.52
454.18 K	–	13.85 ± 0.62
464.9 K	–	19.18 ± 0.78
474.02 K	–	24.96 ± 0.91
480.05 K	–	29.55 ± 1.1
491.45 K	–	40.33 ± 1.4
502.53 K	–	53.62 ± 1.7
512.49 K	–	68.83 ± 2.1
522.97 K	–	88.4 ± 2.4
528.78 K	–	101.33 ± 2.7

Cc1ccc(C(C)C)cc1 [1-(1-methylethyl)-4-methylbenzene]
Conditions	mass density [kg/m3]	vapor or sublimation pressure [kPa]
–	853.2 ± 2	–
450.28 K	–	101.33 ± 6.1

CC1=CCC2C(C1)C2(C)C (centres undefined) [3,7,7-trimethylbicyclo[4.1.0]hept-3-ene]
Conditions	mass density [kg/m3]	vapor or sublimation pressure [kPa]
–	863.8 ± 2	–
356.07 K	–	5.32 ± 0.64
378.03 K	–	14.5 ± 0.68
388.7 K	–	20.46 ± 0.8
391.9 K	–	22.59 ± 1
396.66 K	–	26.61 ± 1.1
405.49 K	–	34.54 ± 1.3
412.42 K	–	42.81 ± 1.5
416.18 K	–	47.76 ± 1.8
424.04 K	–	59.53 ± 1.9
426.24 K	–	63.19 ± 2.1
430.64 K	–	70.97 ± 2.2
433.68 K	–	76.91 ± 2.4
436.32 K	–	82.05 ± 2.7
439.47 K	–	89.96 ± 2.8
442.61 K	–	96.43 ± 2.8
444.44 K	–	101.33 ± 3.2
